Test results: paper PMC7024302, “Ultrashort Cationic Lipopeptides–Effect of N-Terminal Amino Acid and Fatty Acid Type on Antimicrobial Activity and Hemolysis” (Molecules, 2020)
≈ marks a conversion by molar mass, not a printed value. Residues, ends and D or L forms follow the SMILES beside them.

Key:
[1] = tested on: A. baumannii ATCC BAA-1605; assay type: cell-based, Acinetobacter baumannii; settings: ATCC BAA-1605, 18 h
Procedure, shortened: (§1)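 Broth microdilution per CLSI: bacteria at 5 × 10^5 CFU/mL in MHB were exposed to lipopeptides (0.5–256 µg/mL) for 18 h at 37 °C. MIC was the lowest concentration inhibiting noticeable growth; run in triplicate.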

[2] = tested on: human red blood cells (hRBCs); assay type: cell-based; settings: red cells of human, 1 h
Procedure, shortened: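 Fresh EDTA-anticoagulated human RBCs, PBS-washed, at 4% (v/v) final were exposed to lipopeptides at 0.5–256 µg/mL for 1 h at 37 °C. Released haemoglobin in supernatant read at 540 nm; PBS as 0% and 1% Triton X-100 as 100% haemolysis. Triplicates.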

[3] = tested on: K. pneumoniae ATCC 700603; assay type: cell-based, Klebsiella pneumoniae; settings: ATCC 700603, 18 h
Procedure, shortened: as §1

[4] = Determination of peptide hydrophobicity with RP-HPLC (adjusted retention time); assay type: physicochemical; settings: RP-HPLC C18, linear 10–55% acetonitrile over 60 min, 0.1% TFA, 25.0 °C, UV 214 nm, triplicate; for tR’: Table 3, adjusted retention time as hydrophobicity; for Adjusted retention time: Table 2, nC = carbon atoms in fatty acid chain
Procedure, shortened: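 Peptides at 1 g/L in water with 0.1% TFA run on a C18 column (3.0 × 100 mm, 5 µm). Elution with a linear 10–55% acetonitrile gradient over 60 min, 0.1% TFA in both eluents, 0.5 mL/min, 25.0 ± 0.1 °C. Detection at 214 nm, in triplicate.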

S. aureus ATCC 25923 = assay type: cell-based, Staphylococcus aureus; settings: ATCC 25923, 18 h
Procedure, shortened: as §1

[5] = tested on: S. aureus ATCC 33591 (MRSA); assay type: cell-based, Staphylococcus aureus; settings: ATCC 33591, 18 h
Procedure, shortened: as §1

E. faecium ATCC 700221 = assay type: cell-based, Enterococcus faecium; settings: ATCC 700221, 18 h
Procedure, shortened: as §1

C. albicans ATCC 10231 = assay type: cell-based, Candida albicans; settings: ATCC 10231, 24 h, pH 7
K. aerogenes ATCC 13048 = assay type: cell-based, Klebsiella aerogenes; settings: ATCC 13048, 18 h
Procedure, shortened: as §1

P. aeruginosa ATCC 9027 = assay type: cell-based, Pseudomonas aeruginosa; settings: ATCC 9027, 18 h
Procedure, shortened: as §1

Row | Structure (SMILES) | MIC A [1] | HC50 [2] | MIC K [3] | tR’ [4] | MIC SA (S. aureus ATCC 25923) | MIC S [5] | MIC E1 (E. faecium ATCC 700221) | MIC CA (C. albicans ATCC 10231) | MIC E2 (K. aerogenes ATCC 13048) | MIC PA (P. aeruginosa ATCC 9027) | Adjusted retention time [4]
1 | CCCCCCCCCCCCCC(=O)N[C@@H](CC[S+](C)[O-])C(=O)N[C@@H](CCCNC(=N)N)C(=O)N[C@@H](CCCNC(=N)N)C(N)=O (stereo partly drawn) [compound 54, C14-M(O)RR-NH2] (HELM PEPTIDE1{[CCCCCCCCCCCCCC(=O)[*:2]].[CS(=O)CC[C@H](N[*:1])C(=O)[*:2]].R.R.[am]}$$$$V2.0) | 64 µg/mL (≈ 93.2 µM) | 116.28 (±1.77) µg/mL | 256 µg/mL (≈ 373 µM) | 39.18 min | 32 µg/mL (≈ 46.6 µM) | 16 µg/mL (≈ 23.3 µM) | 16 µg/mL (≈ 23.3 µM) | 32 µg/mL (≈ 46.6 µM) | >256 (-) µg/mL | 64 µg/mL (≈ 93.2 µM) | –
2 | CCCCCCCCCCCCCC(=O)N[C@@H](CCS(C)(=O)=O)C(=O)N[C@@H](CCCNC(=N)N)C(=O)N[C@@H](CCCNC(=N)N)C(N)=O [compound 58, C14-M(O2)RR-NH2] (HELM PEPTIDE1{[CCCCCCCCCCCCCC(=O)[*:2]].[CS(=O)(=O)CC[C@H](N[*:1])C(=O)[*:2]].R.R.[am]}$$$$V2.0) | 32 µg/mL (≈ 45.5 µM) | 70.11 (±2.93) µg/mL | 256 µg/mL (≈ 364 µM) | 41.17 min | 16 µg/mL (≈ 22.8 µM) | 16 µg/mL (≈ 22.8 µM) | 8 µg/mL (≈ 11.4 µM) | 16 µg/mL (≈ 22.8 µM) | 256 µg/mL (≈ 364 µM) | 32 µg/mL (≈ 45.5 µM) | –
3 | CCCCCCCCCCCCCC(=O)N[C@@H](CC(N)=O)C(=O)N[C@@H](CCCNC(=N)N)C(=O)N[C@@H](CCCNC(=N)N)C(N)=O [compound 62, C14-NRR-NH2] (HELM PEPTIDE1{[CCCCCCCCCCCCCC(=O)[*:2]].N.R.R.[am]}$$$$V2.0) | 32 µg/mL (≈ 48.9 µM) | 64.37 (±2.23) µg/mL | 128 µg/mL (≈ 196 µM) | 38.71 min | 16 µg/mL (≈ 24.5 µM) | 16 µg/mL (≈ 24.5 µM) | 8 µg/mL (≈ 12.2 µM) | 16 µg/mL (≈ 24.5 µM) | 128 µg/mL (≈ 196 µM) | 32 µg/mL (≈ 48.9 µM) | –
4 | CCCCCCCCCCCC(=O)N[C@@H](CCCC)C(=O)N[C@@H](CCCNC(=N)N)C(=O)N[C@@H](CCCNC(=N)N)C(N)=O [compound 65, C12-NleRR-NH2] (HELM PEPTIDE1{[CCCCCCCCCCCC(=O)[*:2]].[Nle].R.R.[am]}$$$$V2.0) | 32 µg/mL (≈ 51.2 µM) | >256 µg/mL | 256 µg/mL (≈ 410 µM) | – | 8 µg/mL (≈ 12.8 µM) | 8 µg/mL (≈ 12.8 µM) | 8 µg/mL (≈ 12.8 µM) | 16 (>16) µg/mL | 256 µg/mL (≈ 410 µM) | 8 µg/mL (≈ 12.8 µM) | 39.958 min
5 | CCCCCCCCCCCCCC(=O)N[C@@H](CCCC)C(=O)N[C@@H](CCCNC(=N)N)C(=O)N[C@@H](CCCNC(=N)N)C(N)=O [compound 66, C14-NleRR-NH2] (HELM PEPTIDE1{[CCCCCCCCCCCCCC(=O)[*:2]].[Nle].R.R.[am]}$$$$V2.0) | 64 µg/mL (≈ 98 µM) | 37.54 (±1.39) µg/mL | 32 µg/mL (≈ 49 µM) | – | 4 µg/mL (≈ 6.13 µM) | 8 µg/mL (≈ 12.3 µM) | 8 µg/mL (≈ 12.3 µM) | 4 µg/mL (≈ 6.13 µM) | 32 µg/mL (≈ 49 µM) | 4 µg/mL (≈ 6.13 µM) | 46.681 min
6 | CCCCCCCCCCCC(=O)N[C@@H](CCC)C(=O)N[C@@H](CCCNC(=N)N)C(=O)N[C@@H](CCCNC(=N)N)C(N)=O [compound 69, C12-NvaRR-NH2] (HELM PEPTIDE1{[CCCCCCCCCCCC(=O)[*:2]].[Nva].R.R.[am]}$$$$V2.0) | 64 µg/mL (≈ 105 µM) | 207.62 (±5.27) µg/mL | 256 µg/mL (≈ 419 µM) | 37.67 min | 8 µg/mL (≈ 13.1 µM) | 16 µg/mL (≈ 26.2 µM) | 16 µg/mL (≈ 26.2 µM) | 32 µg/mL (≈ 52.4 µM) | 256 µg/mL (≈ 419 µM) | 32 µg/mL (≈ 52.4 µM) | –
